Laboratory results as given in patent US11691989B2, “Macrocyclic indoles as Mcl-1 inhibitors” (ASCENTAGE PHARMA (SUZHOU) CO., LTD., priority 2018, dated 2023).

Columns and labels:
[1] = target: Mcl-1 protein (residues 171-323) (Homo sapiens (Human), UniProt Q07820); assay: Inhibition of Mcl-1 by fluorescence polarization (FP) competitive binding assay with FAM-Bid tracer; conditions: 2 nM FAM-Bid, 20 nM Mcl-1, 30 min, read-out: Mc1-1 (FP)
Procedure: Inhibition of Mcl-1 by fluorescence polarization (FP) assay.
The method used a fluorescein labelled peptide (FAM-Bid) which binds to the Mcl-1 protein leading to an increased anisotropy measured in milli-polarization (mP) values using a plate reader.
A 10-points serial dilution of each compound was prepared in DMSO and 5 μL solution was transferred into flat bottomed, 96-well back plate (final DMSO concentration 5%). 120 μL of Buffer (PBS, 0.01% BGG (Sigma Cat. #SRE0011), 0.01% Triton X-100), containing the Fluorescein labelled peptide (Final concentration 2 nM) and Mcl-1 protein (final concentration 20 nM) was then added. […] 10-points dose response curves were plotted with GraphPad software using Sigmoidal Dose-Response Model and the IC50 values were determined by nonlinear regression fitting of the competition curves.

[2] = tested on: OPM-2 cells; assay: Cell viability assay (OPM-2 cells), CCK-8; type: cell-based; conditions: 5% FBS
Procedure: Cell Viability Assay (OPM-2 cells)
OPM-2 cells were obtained from Deutsche Sammlung von Mikroorganismen and Zellkulturen GmbH (DSMZ). Cells were maintained in the recommended culture medium with 10% FBS at 37° C. and an atmosphere of 5% CO2.
The effect of representative Compounds of the Disclosure on cell viability was determined using Cell Counting Kit-8 (CCK-8) assay (Shanghai Life iLab Bio Technology) according to the manufacturer's instructions. Each tested compound was serially diluted in culture medium, 100 μL of the compound dilution was added into 96-well plates. 100 μL of an OPM-2 cell suspension (20000 cells/well) in culture medium were seeded into the corresponding well of the plate and the cells were incubated at 37° C. in an atmosphere of 5% CO2 for 24 hours. In the next day, 20 μL of CCK-8 solution was added to each well of the plate and incubated for 4 hours.
The plates were read at 450 nm on the microplate spectrophotometer (SpectraMax plus 384, Molecular devices). The readings were normalized to the vehicle cells, and the IC50 was calculated by nonlinear regression analysis using GraphPad Prism 6 software.

[3] = tested on: NCI-H929 cells; assay: Cell viability assay (NCI-H929 cells), CCK-8; type: cell-based; conditions: 5% FBS
Procedure: Cell Viability Assay (NCI-H929 cells)
NCI-H929 cells were obtained from American Type Culture Collection (ATCC). Cells were maintained in the recommended culture medium (RPMI 1640) with 10% FBS and 0.05 mM BME at 37° C. and an atmosphere of 5% CO2.
The effect of Compounds on cell viability was determined using Cell Counting Kit-8 (CCK-8) assay according to the manufacturer's instructions. 95 μL of NCI-H929 cell suspension (20000 cells/well) in culture medium were seeded into 96-well plates and cultured 4 hrs. Each tested compound was serially diluted in DMSO, then 5 μL of the compound or DMSO was diluted in 95 μL medium once more. At last, 5 μL of the compound dilution was added to the corresponding well of the cell plate. After the addition of the tested compound, the cells were incubated at 37° C. in an atmosphere of 5% CO2 for 24 hrs. At the end, 10 μL of CCK-8 solution was added to each well of the plate and incubated for 1-4 hours. The plates were read at 450 nm on the microplate reader (BioTek Synergy 1MF). The readings were normalized to the vehicle cells, and the IC50 was calculated by nonlinear regression analysis using GraphPad Prism 6 software.

Mcl-1 protein (residues 171-323), sequence (Q07820 171-323): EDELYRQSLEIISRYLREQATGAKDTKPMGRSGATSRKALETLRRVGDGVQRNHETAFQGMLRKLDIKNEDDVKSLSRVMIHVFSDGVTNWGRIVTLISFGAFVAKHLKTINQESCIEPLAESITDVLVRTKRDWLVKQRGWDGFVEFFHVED

Row | Molecule | IC50 [1] [nM] | IC50 ([2]; Homo sapiens, OPM-2, 24 h) [nM] | IC50 ([3]; Homo sapiens, NCI-H929, 24 h) [nM] | IC50 ([2]; 24 hours) [nM] | IC50 ([3]; 24 hrs) [nM]
1 | Cc1c(C(=O)O)n2c3ccc(Cl)c(c13)-c1c(nn(C)c1C)CN(S(=O)(=O)c1cnn(C)c1)Cc1cc(n(C)n1)CSc1cc(c3ccc(F)cc3c1)OCCC2 [Cpd. No. 36, (Z)-1^5-chloro-9^6-fluoro-1^3,2^1,2^5,6^1-tetramethyl-4#1-methyl-1H-pyrazol-4-yl)sulfonyl)-1^1H,2^1H,6^1H-10-oxa-8-thia-4-aza-1(4,1)-indola-2(4,3),6(3,5)-dipyrazola-9(3,1)-naphthalenacyclotridecaphane-1^2-carboxylic acid] | 27 | 2020 | 696 | – | –
2 | Cc1c(C(=O)O)n2c3ccc(Cl)c(c13)-c1c(nn(C)c1C)CN(S(=O)(=O)c1ccn(C)n1)Cc1cc(n(C)n1)CSc1cc(c3ccc(F)cc3c1)OCCC2 [Cpd. No. 37, (Z)-1^5-chloro-9^6-fluoro-1^3,2^1,2^5,6^1-tetramethyl-4#1-methyl-1H-pyrazol-3-yl))sulfonyl)-1^1H,2^1H,6^1H-10-oxa-8-thia-4-aza-1(4,1)-indola-2(4,3),6(3,5)-dipyrazola-9(3,1)-naphthalenacyclotridecaphane-1^2-carboxylic acid] | 29 | 3160 | 1500 | – | –
3 | CNS(=O)(=O)N1Cc2cc(n(C)n2)CSc2cc(c3ccc(F)cc3c2)OCCCn2c(C(=O)O)c(C)c3c(c(Cl)ccc32)-c2c(nn(C)c2C)C1 [Cpd. No. 38, (Z)-1^5-chloro-9^6-fluoro-1^3,2^1,2^5,6^1-tetramethyl-4-(N-methylsulfamoyl)-1^1H,2^1H,6^1H-10-oxa-8-thia-4-aza-1 (4,1)-indola-2(4,3),6(3,5)-dipyrazola-9(3,1)-naphthalenacyclotridecaphane-1^2-carboxylic acid] | 7 | 543 | 270 | – | –
4 | Cc1c(C(=O)O)n2c3ccc(Cl)c(c13)-c1c(nn(C)c1C)CN(S(=O)(=O)N(C)C)Cc1cc(n(C)n1)CSc1cc(c3ccc(F)cc3c1)OCCC2 [Cpd. No. 40, (Z)-1^5-chloro-9^6-fluoro-1^3,2^1,2^5,6^1-tetramethyl-4-(N, N-dimethylsulfamoyl)-1^1H,2^1H,6^1H-10-oxa-8-thia-4-aza-1 (4,1)-indola-2(4,3),6(3,5)-dipyrazola-9(3,1)-naphthalenacyclotridecaphane-1^2-carboxylic acid] | 13 | 190 | 159 | – | –
5 | Cc1c(C(=O)O)n2c3ccc(Cl)c(c13)-c1c(nn(C)c1C)CN(S(=O)(=O)c1cccnc1)Cc1cc(n(C)n1)CSc1cc(c3ccc(F)cc3c1)OCCC2 [Cpd. No. 41, (Z)-1^5-chloro-9^6-fluoro-1^3,2^1,2^5,6^1-tetramethyl-4-(pyridin-3-ylsulfonyl)-1^1H,2^1H,6^1H-10-oxa-8-thia-4-aza-1 (4,1)-indola-2(4,3),6(3,5)-dipyrazola-9(3,1)-naphthalenacyclotridecaphane-1^2-carboxylic acid] | 17 | 275 | 198 | – | –
6 | Cc1c(C(=O)O)n2c3ccc(Cl)c(c13)-c1c(nn(C)c1C)CN(C(=O)c1ccccn1)Cc1cc(n(C)n1)CSc1cc(c3ccc(F)cc3c1)OCCC2 [Cpd. No. 42, (Z)-1^5-chloro-9^6-fluoro-1^3,2^1,2^5,6^1-tetramethyl-4-picolinoyl-1^1H,2^1H,6^1H-10-oxa-8-thia-4-aza-1 (4,1)-indola-2(4,3),6(3,5)-dipyrazola-9(3,1)-naphthalenacyclotridecaphane-1^2-carboxylic acid] | 22 | 1510 | 768 | – | –
7 | Cc1c(C(=O)O)n2c3ccc(Cl)c(c13)-c1c(nn(C)c1C)CN(C(=O)c1ncco1)Cc1cc(n(C)n1)CSc1cc(c3ccc(F)cc3c1)OCCC2 [Cpd. No. 43, (Z)-1^5-chloro-9^6-fluoro-1^3,2^1,2^5,6^1-tetramethyl-4-(oxazole-2-carbonyl)-1^1H,2^1H,6^1H-10-oxa-8-thia-4-aza-1(4,1)-indola-2(4,3),6(3,5)-dipyrazola-9(3,1)-naphthalenacyclotridecaphane-1^2-carboxylic acid] | 22 | 1250 | 613 | – | –
8 | Cc1c(C(=O)O)n2c3ccc(Cl)c(c13)-c1c(nn(C)c1C)CN(C(=O)c1nccn1C)Cc1cc(n(C)n1)CSc1cc(c3ccc(F)cc3c1)OCCC2 [Cpd. No. 44, (Z)-1^5-chloro-9^6-fluoro-1^3,2^1,2^5,6^1-tetramethyl-4-(1-methyl-1H-imidazole-2-carbonyl)-1^1H,2^1H,6^1H-10-oxa-8-thia-4-aza-1(4,1)-indola-2(4,3),6(3,5)-dipyrazola-9(3,1)-naphthalenacyclotridecaphane-1^2-carboxylic acid] | 23 | 1160 | 780 | – | –
9 | Cc1c(C(=O)O)n2c3ccc(Cl)c(c13)-c1c(nn(C)c1C)CN(S(=O)(=O)C(F)(F)F)Cc1cc(n(C)n1)CSc1cc(c3ccccc3c1)OCCC2 [Cpd. No. 47, (Z)-1^5-chloro-1^3,2^1,2^5,6^1-tetramethyl-4-((trifluoromethyl)sulfonyl)-1^1H,2^1H,6^1H-10-oxa-8-thia-4-aza-1(4,1)-indola-2(4,3),6(3,5)-dipyrazola-9(3,1)-naphthalenacyclotridecaphane-1^2-carboxylic acid] | 5 | 229 | 170 | – | –
10 | Cc1nn(C)c2c1-c1c(Cl)ccc3c1c(C)c(C(=O)O)n3CCCOc1cc(cc3ccccc13)SCc1cc(nn1C)CN(S(C)(=O)=O)C2 [Cpd. No. 48, (Z)-1^5-chloro-1^3,2^1,2^3,6^1-tetramethyl-4-(methylsulfonyl)-1^1H,2^1H,6^1H-10-oxa-8-thia-4-aza-1(4,1)-indola-2(4,5),6(3,5)-dipyrazola-9(3,1)-naphthalenacyclotridecaphane-1^2-carboxylic acid] | 12 | 587 | 243 | – | –
11 | Cc1c(C(=O)O)n2c3ccc(Cl)c(c13)-c1c(nn(C)c1C)CN(CC(=O)N(C)C)Cc1cc(n(C)n1)CSc1cc(c3ccc(F)cc3c1)OCCC2 [Cpd. No. 54, (Z)-1^5-chloro-4-(2-(dimethylamino)-2-oxoethyl)-9^6-fluoro-1^3,2^1,2^5, 6^1--tetramethyl-1^1H,2^1H,6^1H-10-oxa-8-thia-4-aza-1(4,1)-indola-2(4,3),6(3,5)-dipyrazola-9(3,1)-naphthalenacyclotridecaphane-1^2-carboxylic acid] | 27 | 3480 | 673 | – | –
12 | Cc1c(C(=O)O)n2c3ccc(Cl)c(c13)-c1c(nn(C)c1C)CN(c1ccccc1)Cc1cc(n(C)n1)CSc1cc(c3ccc(F)cc3c1)OCCC2 [Cpd. No. 55, (Z)-1^5-chloro-9^6-fluoro-1^3,2^1,2^5,6^1-tetramethyl-4-phenyl-1^1H,2^1H,6^1E-10-oxa-8-thia-4-aza-1(4,1)-indola-2(4,3),6(3,5)-dipyrazola-9(3,1)-naphthalenacyclotridecaphane-1^2-carboxylic acid] | 24 | 744 | 145 | – | –
13 | (Z)-1^5-chloro-9^6-fluoro-1^3,2^1,2^3,6^1-tetramehtyl-4-(methylsulfonyl)-1^1H,2^1H,6^1H-10-oxa-8-thia-4-aza-1(4,1)-indola-2(4,5),6(3,5)-dipyrazola-9(3,1)- naphthalenacyclotridecaphane-1^2-carboxylic acid [Cpd. No. 49] | 5 | – | – | 308 | 204
